In the supplement of paper PMC13380429:
± gives the standard deviation of the averaged measurements.

Key:
Settings in all cases: 72 h
Caco-2 [1] = test: relative viability EC50 (midpoint between 100% and the lowest measured viability); higher = less toxic
Calu-3 [2] = test: as above
Vero E6 [3] = test: as above
HepG2 [4] = test: as above
U2OS [5] = test: as above
Caco-2 [6] = test: drug sensitivity score (DSS) for viability; higher = more toxic; extreme values may be limits of the assay
Calu-3 [7] = test: as above
Vero E6 [8] = test: as above
HepG2 [9] = test: as above
U2OS [10] = test: as above
Caco-2 [11] = test: cell viability relative to DMSO; higher = less toxic
Calu-3 [12] = test: as above
Vero E6 [13] = test: as above
HepG2 [14] = test: as above
U2OS [15] = test: as above

Row | Structure (SMILES) | relative viability EC50 (Caco-2 [1]) [µM] | relative viability EC50 (Calu-3 [2]) [µM] | relative viability EC50 (Vero E6 [3]) [µM] | relative viability EC50 (HepG2 [4]) [µM] | relative viability EC50 (U2OS [5]) [µM] | drug sensitivity score (Caco-2 [6]) | drug sensitivity score (Calu-3 [7]) | drug sensitivity score (Vero E6 [8]) | drug sensitivity score (HepG2 [9]) | drug sensitivity score (U2OS [10]) | cell viability (Caco-2 [11]; 1 nM) [%] | cell viability (Caco-2 [11]; 10 nM) [%] | cell viability (Caco-2 [11]; 100 nM) [%] | cell viability (Caco-2 [11]; 1000 nM) [%] | cell viability (Caco-2 [11]; 10000 nM) [%] | cell viability (Calu-3 [12]; 1 nM) [%] | cell viability (Calu-3 [12]; 10 nM) [%] | cell viability (Calu-3 [12]; 100 nM) [%] | cell viability (Calu-3 [12]; 1000 nM) [%] | cell viability (Calu-3 [12]; 10000 nM) [%] | cell viability (Vero E6 [13]; 1 nM) [%] | cell viability (Vero E6 [13]; 10 nM) [%] | cell viability (Vero E6 [13]; 100 nM) [%] | cell viability (Vero E6 [13]; 1000 nM) [%] | cell viability (Vero E6 [13]; 10000 nM) [%] | cell viability (HepG2 [14]; 1 nM) [%] | cell viability (HepG2 [14]; 10 nM) [%] | cell viability (HepG2 [14]; 100 nM) [%] | cell viability (HepG2 [14]; 1000 nM) [%] | cell viability (HepG2 [14]; 10000 nM) [%] | cell viability (U2OS [15]; 1 nM) [%] | cell viability (U2OS [15]; 10 nM) [%] | cell viability (U2OS [15]; 100 nM) [%] | cell viability (U2OS [15]; 1000 nM) [%] | cell viability (U2OS [15]; 10000 nM) [%]
1 | Cc1csc(S(=O)(=O)N(CC(C)C)c2cc3c(cc2OCc2ccc(C(=O)O)cc2)CCC3)n1 [ONO-8130] | > 10 | > 10 | > 10 | > 10 | > 10 | 0 | 0 | 0 | 0 | 0 | 99 | 104 | 96.4 | 99.2 | 91.6 | 98.5 | 101 | 97.6 | 98.5 | 99.5 | 107 | 102 | 99.3 | 97 | 98.6 | 110 | 95.3 | 96.8 | 94.8 | 93.6 | 97.9 | 103 | 97.5 | 101 | 95.1
2 | C=CCN1CC[C@]23c4c5ccc(O)c4O[C@H]2/C(=N/NC(=O)c2ccccc2)CC[C@@]3(O)[C@H]1C5 [naloxone-benzoylhydrazone] | > 10 | > 10 | > 10 | > 10 | > 10 | 0 | 0 | 0 | 0 | 0 | 91.7 | 93.8 | 101 | 94.7 | 112 | 95.4 | 95.8 | 89.4 | 103 | 112 | 97.9 | 102 | 102 | 97.2 | 107 | 101 | 99.5 | 102 | 96.4 | 101 | 100 | 101 | 97.4 | 103 | 105
3 | N[C@H](C(=O)O)c1ccc(O)c(C(=O)O)c1 [3-carboxy-4-hydroxyphenylglycine-(S)] | > 10 | > 10 | > 10 | > 10 | > 10 | 0 | 0 | 0 | 0 | 0 | 95.6 ± 1.8 | 101 ± 1.3 | 95.2 ± 2.6 | 93.4 ± 0.57 | 101 ± 4.5 | 96.5 ± 5.7 | 89 ± 0.99 | 96 ± 4.8 | 94.2 ± 3 | 101 ± 3 | 104 ± 7.1 | 103.7 ± 0.35 | 99 ± 2.3 | 106 ± 3.2 | 101 ± 2.1 | 102.2 ± 0.28 | 97.5 ± 5.9 | 98.7 ± 0.28 | 100 ± 2.3 | 100 ± 1.3 | 101 ± 0.71 | 101 ± 1.9 | 103 ± 2.5 | 94.8 ± 4.5 | 102 ± 0.49
4 | CCCCC(=O)O[C@]1(C(=O)CO)[C@@H](C)C[C@H]2[C@@H]3CCC4=CC(=O)C=C[C@]4(C)[C@@]3(F)[C@@H](O)C[C@@]21C [BETAMETHASONE VALERATE] | > 10 | > 10 | > 10 | > 10 | > 10 | 0 | 0 | 0 | 0.6 | 0 | 103 | 86.2 | 113 | 110 | 96.1 | 105 | 101 | 95.2 | 93.7 | 117 | 105 | 102 | 95.4 | 91.1 | 95.6 | 107 | 114 | 90 | 107 | 76.4 | 95.8 | 96.2 | 95 | 94.8 | 92.4
5 | NCC1CC(=O)N(Cc2ccccc2)C1 (stereo not given) [nebracetam] | > 10 | > 10 | > 10 | > 10 | > 10 | 0 | 0 | 0 | 0 | 0 | 87 | 91.8 | 84.4 | 97.8 | 99.7 | 99.7 | 96.3 | 93.1 | 94.4 | 107 | 94.5 | 93.6 | 97.8 | 91.4 | 108 | 109 | 108 | 92.8 | 96.6 | 98.5 | 97.4 | 104 | 95.7 | 100 | 104
6 | OC[C@H]1O[C@H](O[C@]2(CCl)O[C@H](CCl)[C@@H](O)[C@@H]2O)[C@H](O)[C@@H](O)[C@H]1Cl [sucralose] | > 10 | > 10 | > 10 | > 10 | > 10 | 0 | 0 | 0 | 0 | 0 | 96.8 | 94.1 | 99.1 | 95.9 | 101 | 99.6 | 91.8 | 98.5 | 99.1 | 95.5 | 100 | 102 | 101 | 106 | 92.7 | 99.1 | 97.7 | 96.8 | 96.2 | 97 | 102 | 100 | 103 | 96 | 103
7 | CC1(C)S[C@@H]2[C@H](NC(=O)[C@H](NC(=O)N3CCN(S(C)(=O)=O)C3=O)c3ccccc3)C(=O)N2[C@H]1C(=O)O [mezlocillin] | > 10 | > 10 | > 10 | > 10 | > 10 | 1.1 | 0 | 0 | 0 | 0 | 100 | 102 | 87.8 | 89.4 | 96.3 | 93.8 | 88.9 | 93.1 | 100 | 94.1 | 99.6 | 107 | 99.5 | 100 | 100 | 99.6 | 94.2 | 91.1 | 98.6 | 104 | 96.4 | 97.9 | 92.7 | 103 | 94.8
8 | CC(=O)O[C@@]12CO[C@@H]1C[C@H](O)[C@@]1(C)C(=O)[C@H](O)C3=C(C)[C@@H](O)C[C@@](O)([C@@H](OC(=O)c4ccccc4)[C@H]21)C3(C)C [10-deacetylbaccatin] | > 10 | > 10 | > 10 | > 10 | > 10 | 0 | 0 | 0 | 0 | 0 | 102 | 110 | 92.6 | 99 | 102 | 105 | 95.6 | 94.9 | 97.4 | 108 | 97.6 | 96.1 | 95.6 | 95.1 | 106 | 93.9 | 105 | 97.3 | 108 | 108 | 98.4 | 99.3 | 104 | 102 | 107
9 | Fc1ccc2nc(CCC#Cc3ccccn3)cn2c1 [dipraglurant] | > 10 | > 10 | > 10 | > 10 | > 10 | 0 | 0.1 | 0 | 0 | 0 | 102 | 94.2 | 106 | 99.5 | 99.3 | 92.1 | 100 | 95.2 | 99.4 | 88 | 94.8 | 100 | 91.6 | 93.3 | 110 | 99.9 | 99.8 | 103 | 104 | 106 | 100 | 97.3 | 95.3 | 93.9 | 99.9
10 | Clc1ccc(C(Cn2ccnc2)OCc2csc3c(Cl)cccc23)c(Cl)c1 (stereo not given) [sertaconazole] | > 10 | > 10 | > 10 | > 10 | > 10 | 0.1 | 0 | 0 | 0 | 0 | 97 | 101 | 95 | 95.6 | 85.4 | 106 | 96.1 | 106 | 95.1 | 96.1 | 102 | 102 | 105 | 105 | 99.5 | 116 | 96.8 | 102 | 105 | 100 | 94.1 | 95.4 | 98.9 | 91.4 | 88.6
11 | Cc1cc(Cn2cnc3c2C[C@@H](C(=O)O)N(C(=O)C(c2ccccc2)c2ccccc2)C3)ccc1N(C)C | > 10 | > 10 | > 10 | > 10 | > 10 | 0 | 0 | 0 | 0 | 0 | 91.4 | 97.9 | 94.1 | 108 | 110 | 87.3 | 106 | 103 | 98.1 | 114 | 96.5 | 90.4 | 99.3 | 96.5 | 103 | 101 | 90.7 | 105 | 99.9 | 110 | 93.3 | 102 | 96 | 103 | 107
12 | Fc1ccc([C@@H]2CCNC[C@H]2COc2ccc3c(c2)OCO3)cc1 [paroxetine] | > 10 | > 10 | > 10 | > 10 | > 10 | 0.6 | 0 | 0 | 0 | 0 | 85.8 | 102 | 111 | 98.6 | 82.1 | 95.9 | 87.4 | 93.1 | 85.1 | 108 | 95.9 | 104 | 98.7 | 101 | 100 | 117 | 120 | 108 | 83.7 | 102 | 97.7 | 96.4 | 103 | 98 | 101
